From US20250276964A1 (Novartis AG, priority 2021, published 2025)

What was measured:
Fetal Hemoglobin (HbF) = assay: Small molecule HbF induction assay (erythroid differentiated mPB CD34+ cells, flow cytometry); assay type: cell-based, human; conditions: for EC50: Homo sapiens, mPB CD34+ cells expanded 6 days, erythroid differentiated with compound 7 days, 7-point, 1:3 dilution from 30 uM; for HbF Amax: highest percentage of cells staining positive for HbF (% HbF+ cells) in the fitted dose-response curve, DMSO baseline approximately 30-40%
Experimental: Cryopreserved primary human CD34^+ hematopoietic stem and progenitor cells were obtained from AllCells, LLC. The CD34^+ cells were isolated from the peripheral blood of healthy donors after mobilization by administration of granulocyte colony-stimulating factor. Cells were differentiated ex vivo toward the erythroid lineage using a 2-phase culture method. In the first phase, cells were cultured in StemSpan™ Serum-Free Expansion Media (SFEM) ([…] Technologies Inc.) supplemented with rhSCF (50 ng/mL, Peprotech®, Inc.), rhIL-6 (50 ng/mL, Peprotech®, Inc.), rhIL-3 (50 ng/mL, Peprotech®, Inc.), and rhFlt3L (50 ng/mL, Peprotech®, Inc.), and 1× antibiotic-antimycotic (Life Technologies, Thermo Fisher Scientific) for 6 days at 37° C. with 5% CO2. During the second phase, cells were cultured in erythroid differentiation media at 5,000 cells/mL in the presence of compound for 7 days at 37° C. with 5% CO2. Erythroid Differentiation Media is comprised of IMDM (Life Technologies) supplemented with insulin (10 μg/mL, Sigma Aldrich), heparin (2 U/mL Sigma Aldrich), holo-transferrin (330 μg/mL, Sigma Aldrich), human serum AB (5%, Sigma Aldrich), hydrocortisone (1 μM, […] Technologies), rhSCF (100 ng/mL, Peprotech®, Inc.), rhIL-3 (5 ng/mL, Peprotech®, Inc.), rhEPO (3 U/mL, Peprotech®, Inc.), and 1× antibiotic-antimycotic. All compounds were dissolved and diluted into dimethylsulfoxide (DMSO) and were added to culture media for a final concentration of 0.3% DMSO for testing in a 7-point, 1:3 dilution series starting at 30 uM.
For viability analysis, samples were washed and resuspended in phosphate-buffered saline (PBS) and stained with LIVE/DEAD™ Fixable Violet Dead Cell Stain Kit (Life Technologies, L34963) for 20 minutes. Cells were then washed again with PBS and resuspended in PBS supplemented with 2% fetal bovine serum (FBS), and 2 mM EDTA to prepare for cell surface marker analysis. Cells were labeled with allophycocyanin-conjugated CD235a (1:100, BD Biosciences, 551336) and Brilliant Violet-conjugated CD71 (1:100, BD Biosciences, 563767) antibodies for 20 minutes. For analysis of cytoplasmic Fetal Hemoglobin (HbF), cells were fixed and permeabilized using the Fixation (BioLegend®, 420801) and Permeabilization Wash (BioLegend®, 421002) Buffers according to the manufacturer's protocol. During the permeabilization step, cells were stained with phycoerythrin-conjugated or FITC-conjugated HbF-specific antibody (1:10-1:25, Invitrogen™, MHFH04-4) for 30 minutes. Stained cells were washed with phosphate-buffered saline before analysis on the FACSCanto™ I1 flow cytometer or LSRFortessa™ (BD Biosciences). […]
mPB CD34+ cells were expanded for 6 days, then erythroid differentiated in the presence of compound for 7 days. Cells were fixed, stained and analyzed by flow cytometry. […]

WIZ = biological target: T1, WIZ (Homo sapiens, UniProt O95785+Q96SW2); assay: Quantification of WIZ protein levels in HiBit tag fusion protein assay (WIZ HiBit assay in 293T cells); assay type: cell-based; conditions: for Dmax at 25 µM / remaining activity at 25 µM: HEK-293T; for Dmax at 25 µM: 100 minus Amax at 25 uM, read-out: % degradation of WIZ (100-Amax); for remaining activity at 25 µM: DMSO-normalized, curve-fitted percentage of WIZ-HiBit remaining at 25 uM, read-out: WIZ Amax; for DC50: WIZ HiBit assay in 293T cells, 10-point, 5-fold dilution, highest concentration 25 μM, about 18 hours, read-out: WIZ AC50
T1 construct: expressed in transfected cells
How it was run: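 293T cells stably carrying single-copy HiBit-WIZ (HSVTK promoter) treated ~18 h at 37 °C with 10-point, 5-fold dilutions, top 25 μM. Lytic HiBit luminescence read; Amax is DMSO-normalised, curve-fitted % WIZ-HiBit remaining at 25 uM.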

T1 sequence (O95785 whole entry, the tested form may be a part): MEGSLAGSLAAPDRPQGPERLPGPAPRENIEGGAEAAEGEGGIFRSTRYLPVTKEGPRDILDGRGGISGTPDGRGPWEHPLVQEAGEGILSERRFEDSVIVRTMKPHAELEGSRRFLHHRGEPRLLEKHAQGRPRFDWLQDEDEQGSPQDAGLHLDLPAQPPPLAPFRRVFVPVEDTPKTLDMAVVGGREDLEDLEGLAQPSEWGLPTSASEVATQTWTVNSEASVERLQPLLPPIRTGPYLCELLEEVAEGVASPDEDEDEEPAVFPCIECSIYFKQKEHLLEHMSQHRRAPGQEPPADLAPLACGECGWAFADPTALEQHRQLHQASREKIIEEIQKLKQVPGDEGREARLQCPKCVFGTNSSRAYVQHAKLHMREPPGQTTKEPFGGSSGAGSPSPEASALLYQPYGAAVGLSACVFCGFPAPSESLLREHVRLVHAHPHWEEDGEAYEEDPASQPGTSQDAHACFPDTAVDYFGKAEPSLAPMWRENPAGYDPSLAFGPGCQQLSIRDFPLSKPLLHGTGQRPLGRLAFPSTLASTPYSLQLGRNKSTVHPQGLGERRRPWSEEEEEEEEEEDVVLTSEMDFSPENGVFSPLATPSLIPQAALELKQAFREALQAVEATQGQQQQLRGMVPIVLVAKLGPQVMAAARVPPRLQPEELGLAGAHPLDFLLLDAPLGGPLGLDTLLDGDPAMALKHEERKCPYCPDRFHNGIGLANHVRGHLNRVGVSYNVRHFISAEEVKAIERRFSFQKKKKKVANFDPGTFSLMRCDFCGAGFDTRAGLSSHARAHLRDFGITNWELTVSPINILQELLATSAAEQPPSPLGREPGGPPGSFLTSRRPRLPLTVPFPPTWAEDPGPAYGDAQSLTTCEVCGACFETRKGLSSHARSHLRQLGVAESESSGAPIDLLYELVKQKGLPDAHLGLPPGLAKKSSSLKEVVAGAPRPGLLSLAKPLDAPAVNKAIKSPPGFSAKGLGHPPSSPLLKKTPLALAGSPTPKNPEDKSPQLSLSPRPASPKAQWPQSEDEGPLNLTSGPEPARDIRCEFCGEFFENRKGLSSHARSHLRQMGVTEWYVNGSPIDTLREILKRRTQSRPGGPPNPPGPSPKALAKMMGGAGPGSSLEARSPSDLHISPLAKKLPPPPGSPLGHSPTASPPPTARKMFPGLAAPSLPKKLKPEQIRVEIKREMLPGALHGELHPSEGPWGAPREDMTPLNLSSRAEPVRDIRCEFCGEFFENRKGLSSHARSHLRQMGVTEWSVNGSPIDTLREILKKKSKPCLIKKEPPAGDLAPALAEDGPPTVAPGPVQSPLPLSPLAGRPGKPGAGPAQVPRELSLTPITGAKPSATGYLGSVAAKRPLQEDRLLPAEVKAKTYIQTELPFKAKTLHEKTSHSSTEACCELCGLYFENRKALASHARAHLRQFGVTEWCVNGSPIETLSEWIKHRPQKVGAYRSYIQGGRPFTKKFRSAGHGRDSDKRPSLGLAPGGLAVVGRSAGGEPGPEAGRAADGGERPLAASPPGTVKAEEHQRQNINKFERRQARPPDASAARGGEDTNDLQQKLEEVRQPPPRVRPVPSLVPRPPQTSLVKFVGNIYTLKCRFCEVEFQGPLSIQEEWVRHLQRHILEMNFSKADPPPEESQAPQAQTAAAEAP
T1 sequence (Q96SW2 whole entry, the tested form may be a part): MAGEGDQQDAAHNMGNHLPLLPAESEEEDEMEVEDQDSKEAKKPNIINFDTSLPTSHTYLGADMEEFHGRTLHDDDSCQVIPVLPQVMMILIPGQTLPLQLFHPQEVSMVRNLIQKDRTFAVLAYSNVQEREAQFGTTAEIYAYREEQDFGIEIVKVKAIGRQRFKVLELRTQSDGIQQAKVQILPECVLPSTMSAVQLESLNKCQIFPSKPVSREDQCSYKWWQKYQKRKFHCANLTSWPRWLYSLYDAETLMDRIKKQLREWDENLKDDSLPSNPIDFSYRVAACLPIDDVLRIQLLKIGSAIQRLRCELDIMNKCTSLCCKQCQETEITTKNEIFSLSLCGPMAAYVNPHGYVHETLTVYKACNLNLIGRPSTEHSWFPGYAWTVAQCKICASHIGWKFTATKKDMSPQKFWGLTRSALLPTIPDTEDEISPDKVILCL
T1 sequence (Q16531 whole entry partner, the tested form may be a part): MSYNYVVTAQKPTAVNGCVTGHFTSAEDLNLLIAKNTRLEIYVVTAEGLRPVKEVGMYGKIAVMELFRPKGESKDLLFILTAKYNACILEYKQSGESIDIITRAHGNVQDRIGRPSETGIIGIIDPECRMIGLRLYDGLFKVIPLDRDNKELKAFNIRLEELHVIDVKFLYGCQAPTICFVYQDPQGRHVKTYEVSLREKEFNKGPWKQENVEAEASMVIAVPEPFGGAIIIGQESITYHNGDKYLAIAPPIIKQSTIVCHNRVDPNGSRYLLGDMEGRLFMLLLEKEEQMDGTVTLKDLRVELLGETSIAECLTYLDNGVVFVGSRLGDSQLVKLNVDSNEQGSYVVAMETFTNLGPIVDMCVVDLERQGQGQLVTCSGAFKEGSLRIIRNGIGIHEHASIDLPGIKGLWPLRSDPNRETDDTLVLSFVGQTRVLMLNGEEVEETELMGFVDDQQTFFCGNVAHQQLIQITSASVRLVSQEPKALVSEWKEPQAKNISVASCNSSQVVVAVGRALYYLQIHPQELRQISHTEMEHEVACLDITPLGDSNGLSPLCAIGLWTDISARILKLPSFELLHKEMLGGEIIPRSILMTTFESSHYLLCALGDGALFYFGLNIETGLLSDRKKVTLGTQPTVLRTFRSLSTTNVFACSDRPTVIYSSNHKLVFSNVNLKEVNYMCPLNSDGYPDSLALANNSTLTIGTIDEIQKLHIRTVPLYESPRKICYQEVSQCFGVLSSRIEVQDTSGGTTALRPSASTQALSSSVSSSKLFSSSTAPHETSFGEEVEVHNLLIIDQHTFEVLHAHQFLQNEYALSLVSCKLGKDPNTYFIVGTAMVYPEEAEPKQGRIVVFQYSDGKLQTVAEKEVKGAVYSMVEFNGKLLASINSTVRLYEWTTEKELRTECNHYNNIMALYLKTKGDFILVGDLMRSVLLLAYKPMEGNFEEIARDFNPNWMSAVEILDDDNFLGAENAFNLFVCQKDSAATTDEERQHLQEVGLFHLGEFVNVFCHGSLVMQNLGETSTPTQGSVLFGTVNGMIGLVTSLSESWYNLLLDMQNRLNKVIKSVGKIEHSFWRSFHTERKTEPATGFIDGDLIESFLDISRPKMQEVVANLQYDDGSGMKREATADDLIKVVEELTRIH

EC50 (Fetal Hemoglobin (HbF)) [nM] | Dmax at 25 µM (WIZ) [%] | remaining activity at 25 µM (WIZ) [%] | DC50 (WIZ) [nM] | SMILES | HbF Amax (Fetal Hemoglobin (HbF)) [%]
172 | 84 | 16 | 89 | C[C@@H]1CN(C)CCN1Cc1ccc2onc(N3CCC(=O)NC3=O)c2c1 [Example 65, (R)-1-(5-((2,4-dimethylpiperazin-1-yl)methyl)benzo[d]isoxazol-3-yl)dihydropyrimidine-2,4(1H,3H)-dione] | 76
45 | 89 | 11 | 6.4 | C[C@H]1CN(Cc2ccc3onc(N4CCC(=O)NC4=O)c3c2)CCN1C [Example 29, (S)-1-(5-((3,4-dimethylpiperazin-1-yl)methyl)benzo[d]isoxazol-3-yl)dihydropyrimidine-2,4(1H,3H)-dione] | 80
